“And” between values parts separate entries of the source, which are not always exact repeats. Equal values may be shown once. Read-outs that look alike come from different tables or passages of the source.
What was measured:
VSV [1] = assay: microbe, parasite or virus in culture; type: cell-based, vesicular stomatitis virus strain Indiana; conditions: for minimal effective concentration: read-out: Lowest concentration causing ≥3.0 log10 reduction in virus titer
HSV-1 = assay: microbe, parasite or virus in culture; type: cell-based, herpes simplex virus type 1 strain MacIntyre; conditions: Human alphaherpesvirus 1, 0.5 h; 0.5 mg/ml, 37° C., 30 min; read-out: Reduction of virus titer, HSV-1
Red Blood Cells = assay: Stability of red blood cells in whole human blood to added monoglyceride; type: cell-based; conditions: 3 mg/ml
Excerpt: Effect of Added Monoglyceride on RBCs in Human Blood.

Group B streptococcus = assay: Inactivation of bacteria by monoglycerides, Group B streptococcus; type: cell-based; conditions: 2 mg/ml, read-out: Reduction of bacterial concentration, Group B streptococcus
VSV [2] = assay: microbe, parasite or virus in culture; type: cell-based, vesicular stomatitis virus; conditions: Vesicular stomatitis virus
VSV [3] = assay: microbe, parasite or virus in culture; type: cell-based, vesicular stomatitis virus; conditions: for Reduction in VSV titer: 10 mM sodium taurocholate, human plasma; for log reduction at 4000 µM / log reduction at 7500 µM / log reduction at 15000 µM: Vesicular stomatitis virus, read-out: Reduction in VSV titer
Total White Blood Cells = assay: Stability of white blood cells in whole human blood to added lipid; type: cell-based; parameters: unit not given here; conditions: 15 mM, control 6.4
Excerpt: Further testing has shown the effect of monoglyceride esters and ether on the total white blood cell concentration in whole human blood.

Solubility = type: physicochemical; conditions: vs 1-monodecanoyl-rac-glycerol
[4] = Vesicular stomatitis virus, 0.5 h
[5] = Vesicular stomatitis virus, 0.5 h, read-out: Reduction of virus titer, VSV
[6] = read-out: Reduction in VSV Titer, 7.5 mM, 0 mM sodium taurocholate, human serum
[7] = read-out: Reduction in VSV Titer, 7.5 mM, 2 mM sodium taurocholate, human serum
[8] = read-out: Reduction in VSV Titer, 7.5 mM, 4 mM sodium taurocholate, human serum
[9] = read-out: Reduction in VSV Titer, 7.5 mM, 6 mM sodium taurocholate, human serum
[10] = read-out: Reduction in VSV Titer, 7.5 mM, 8 mM sodium taurocholate, human serum
[11] = read-out: Reduction in VSV Titer, 7.5 mM, 10 mM sodium taurocholate, human serum
[12] = read-out: Reduction in VSV Titer, 7.5 mM, 12 mM sodium taurocholate, human serum

SMILES	minimal effective concentration (VSV [1]; [4])	log reduction at 7500 µM (VSV [2]; [6])	log reduction at 7500 µM (VSV [2]; [7])	log reduction at 7500 µM (VSV [2]; [8])	log reduction at 7500 µM (VSV [2]; [9])	log reduction at 7500 µM (VSV [2]; [10])	log reduction at 7500 µM (VSV [2]; [11])	log reduction at 7500 µM (VSV [2]; [12])	Reduction in VSV titer (VSV [3]; 4 mM)	Reduction in VSV titer (VSV [3]; 7.5 mM)	Reduction in VSV titer (VSV [3]; 15 mM)	log reduction at 4000 µM (VSV [3])	log reduction at 7500 µM (VSV [3])	log reduction at 15000 µM (VSV [3])	Total White Blood Cells (Total White Blood Cells)	further results
CCCCCCCCCC(=O)OCC(O)CO (racemic) [Monocaprin (10:0), 1-Monodecanoyl-rac-glycerol]	500 µg/mL and 2000 µM	1	≥ 5	≥ 5	≥ 5	≥ 5	≥ 5	≥ 5	1.0 log10	≥ 4.0 log10	≥ 4.0 log10	0	1	≥ 4	0.7	log reduction at 500 µg/mL (VSV [1]; [5]): ≥ 4; active concentration relative to corresponding free acids (VSV [1]; monoglyceride vs free acid): ten times lower; log reduction at 500 µg/mL (HSV-1): ≥ 3.7; lysis of RBCs in whole blood (Red Blood Cells): does not lyse RBCs in whole blood; log reduction at 2000 µg/mL (Group B streptococcus): 4.5
CCCCCCCC(=O)OCC(O)CO (racemic) [Monocaprylin (8:0), 1-Monocapryloyl-rac-glycerol]	2000 µg/mL and 9000 µM	≥ 1	≥ 3	4	≥ 5	≥ 5	≥ 5	≥ 5	2.0 log10	≥ 4.0 log10	≥ 4.0 log10	0	1	2	2.4	log reduction at 2000 µg/mL (VSV [1]; [5]): ≥ 4; solubility in words (Solubility): more soluble
